“Also recorded” adds a separate entry of the source. Where two headings read alike, the source gives them in different places. Where a SMILES comes first, the peptide text is derived from it. The star is where a group is joined. Cbz = O=C(OCc1ccccc1)*
Experiments:
BT-474 cells = assay: MTT cell viability assay, BT-474; format: cell-based; conditions: FIG. 43, FIG. 48
[1] = system: Akt, MAPK, GSK3-β, snail, slug, KLF4 in SK-BR-3 cells; assay: Western blot of erbB downstream signaling and Snail/Slug, SK-BR-3; format: cell-based, human
[2] = system: Akt, MAPK, snail in MDA-MB-453 cells; assay: Western blot of signaling and snail, MDA-MB-453; format: cell-based; conditions: 24 hours (FIG. 20B)
H2N113 tumors = format: in vivo
MDA-MB-231 cells = assay: MTT cell viability assay, MDA-MB-231; format: cell-based; conditions: FIG. 43 / FIG. 55C
MDSC = assay: In vitro MDSC migration assay (Transwell, H2N113 conditioned medium); format: cell-based, mouse; conditions: H2N113 treated 3 days (FIG. 9)
H2N113 (IFNγR KD) tumors = assay: Implanted H2N113 (IFNγR KD) tumor growth in MMTV-neu mice; format: in vivo, mouse; conditions: suboptimal 7.16.4 1.5 mg/kg; IFN-γ 5×10^5 IU/kg (FIG. 33)
[3] = system: class I and class II MHC antigens in SKBR3 cells; assay: MHC expression in SKBR3 cells by FACS; format: cell-based, human; conditions: FIG. 4
MCF10A cells = assay: MTT cell viability assay, MCF10A; format: cell-based; conditions: 8 days
PD-L1 = PD-L1 expression in treated tumors; format: in vivo, mouse; conditions: FIG. 60A
Description: FIG. 60A-FIG. 60C. PD-L1 expression is increased in tumors treated with IFN-γ. FIG. 60A—Western blotting was performed with anti-PD-L1 antibody with the tumors from each indicated group of mice after treatment in the same way as FIG. 59A. FIG. 60B—FACS analysis of PD-L1 expression in tumor cells from control IgG and 7.16.4+IFN-γ treated mice. Tumor cells are gated as CD45-large size cells which we confirmed most of them are tumor cells by 7.16.4 antibody. **P<0.02. FIG. 60C—Administration of anti-PD-L1 antibody with the ordered therapy. Mice were treated with control PBS, 7.16.4 (1.5 mg/kg, three times per week) and anti-PDL1 (5 mg/kg, twice per week), 7.16.4 and IFN-γ ([…], three times per week), or the combination of IFN-γ, 7.16.4 and anti-PD-L1. Data represent mean+SEM.
This is also consistent with why IFN-γ alone is not useful for cancer therapy (Zaidi and Merlino, 2011). […] It is possible that PD-L1 acts as a negative immune regulator induced by IFN-γ treatment alone. […] To determine if PD-L1 can be further targeted for this ordered therapy, we used anti-PD-L1 antibody along with 7.16.4 and IFN-γ.

H2N113 (IFNγR KD) cells = assay: IFN-γ response of H2N113 (IFNγR KD) cells in vitro; format: cell-based, mouse
H2N113 cells = assay: Cytotoxicity assay of spleen CD8+ T cells from treated mice; format: in vivo, mouse; conditions: suboptimal mAb and IFN-γ (FIG. 52)
SK-BR-3 cells = assay: Soft agar growth (foci formation) assay, SK-BR-3; format: cell-based, human; conditions: 14 days in soft agar, ImageJ
[4] = inhibitor added during final 8 hours of two-day 4D5 and IFN-γ treatment

CC/C(=C(\c1ccc(O)cc1)c1ccc(OCCN(C)C)cc1)c1ccccc1 [4-OH tamoxifen]
cell viability (BT-474 cells): reduced viability in the cIgG-treated cells; also recorded: complemented 4D5 treatment; also recorded: did not further sensitize the cells to IFN-γ in combination with 4D5

O.O=C(O)C(F)(F)F.O=c1[nH]c2ccccc2n1C1CCN(Cc2ccc(-c3nc4cc5[nH]cnc5cc4nc3-c3ccccc3)cc2)CC1 [Akt1/2 inhibitor]
snail protein level ([1]; Western blot): dose-dependent decrease in snail content

Cc1c[nH]c(-c2cnc(NCCNc3ccc(C#N)cn3)nc2-c2ccc(Cl)cc2Cl)n1 [CHIR99021]
slug content under 4D5 and IFN-γ co-treatment [1, 4]: no change in slug content
snail content under 4D5 and IFN-γ co-treatment [1, 4]: dose-dependent rescue of snail

CC(C)C[C@@H](C=O)NC(=O)[C@H](CC(C)C)NC(=O)[C@H](CC(C)C)NC(=O)OCc1ccccc1 [MG-132] (Cbz-Leu-Leu-Leu-aldehyde)
slug content under 4D5 and IFN-γ co-treatment [1, 4]: no change in slug content
snail content under 4D5 and IFN-γ co-treatment [1, 4]: inhibited the co-treatment-mediated reduction of snail in a dose-dependent manner

CCN(CC)CCCC(C)Nc1ccnc2cc(Cl)ccc12 (stereo not shown) [chloroquine]
snail content under 4D5 and IFN-γ co-treatment [1]: increased snail content but was unable to rescue

CS(=O)(=O)CCNCc1ccc(-c2ccc3ncnc(Nc4ccc(OCc5cccc(F)c5)c(Cl)c4)c3c2)o1 [lapatinib, Lapatinib]
Akt pathway activity ([1]; 24 hours (FIG. 20A, 20B)): inactivated; also recorded: diminished Akt activity in both cell lines
slug protein level ([1]; Western blot): not slug
snail protein level ([1]; Western blot): dose-dependent reduction in snail
Akt activity [2]: diminished Akt activity in both cell lines
snail protein level [2]: snail is reduced upon lapatinib treatment

IFNα
anti-tumor activity of IFNα on its own (H2N113 tumors; FIG. 7): appears to have anti-tumor activity on its own
enhancement of mAb 7.16.4 activity to suppress tumor growth (H2N113 tumors; IFNα in combination with mAb 7.16.4 (FIG. 7)): could not enhance mAb 7.16.4 activity

B1: IFN-γ: recombinant interferon-gamma (SEQ ID NO: 5) (protein)
chain: QDPYVKEAENLKKYFNAGHSDVADNGTLFLGILKNWKEESDRKIMQSQIVSFYFKLFKNFKDDQSIQKSVETIKEDMNVKFFNSNKKKRDDFEKLTNYSVTDLNVQRKAIHELIQVMAELSPAAKTGKRKRSQ
modifications: IFN-gamma
cell viability (MDA-MB-231 cells): did respond to IFN-γ alone
MDSC migration induced by H2N113 conditioned medium (MDSC): no appreciable effects
tumor growth (H2N113 (IFNγR KD) tumors): no effect on its own
class II MHC antigen expression [3]: no effect
cell viability (MCF10A cells): minimal changes to their viability
PD-L1 expression in tumor tissues (PD-L1): dramatically induced PD-L1 expression
GSK3-β activation ([1]; Western blot (FIG. 21A)): unable to do so
tumor volumes (H2N113 tumors; BALB/c mice, 7.16.4 1.5 mg/kg, IFN-γ 5×10^5 IU/kg (FIG. 26)): demonstrable effect
tumor growth (H2N113 tumors; MMTV-neu mice, 7.16.4 1.5 mg/kg twice per week, IFN-γ 5×10^5 IU/kg three times per week (FIG. 1), 1.5 mg/kg): aggressive tumor growth; also recorded: failed to significantly inhibit tumor growth
IFN-γ mediated growth suppression (H2N113 (IFNγR KD) cells; 5 days, LDH activity (FIG. 32C)): resistant to IFN-γ mediated growth suppression
IFN-γ induced MHC expression (H2N113 (IFNγR KD) cells; FIG. 32B): diminished
effector CD8+ T cell activity against H2N113 cells (H2N113 cells): negligible effects
percentage of foci greater than 20 pixels (SK-BR-3 cells): 52±8%
percentage of foci less than 20 pixels (SK-BR-3 cells): 48±8%

Reference: US11446516B2, “Methods of increasing response to cancer radiation therapy” (THE TRUSTEES OF THE UNIVERSITY OF PENNSYLVANIA, priority 2013, dated 2022)
